Tests used:
Assay type in all cases: in vivo
[1] = system: IPOHE: ivyleaf morningglory (Ipomoea hederecea); experiment: Pre-emergent Test I herbicidal activity; conditions: pre-emergence, 336 h, read-out: Visual Growth Reduction (%) 14 Days After Application, IPOHE; for pest or weed control at 3840 g/ha: 3.84 kg ai/ha
Protocol: (§1) Pre-emergent Test I Seeds of test species were planted into round plastic pots (5-inch diameter) containing sandy loam soil. After planting, all pots were sub-irrigated 16 h prior to compound application. Compounds were dissolved in a 97:3 v/v (volume/volume) mixture of acetone and dimethyl sulfoxide (DMSO) and diluted to the appropriate concentration in a final application solution containing water, acetone, isopropanol, DMSO and Agri-dex (crop oil concentrate) in a 59:23:15:1.0:1.5 v/v ratio and 0.02% w/v (weight/volume) of Triton X-155 to obtain the spray solution containing the highest application rate. Additional application rates were obtained by serial dilution of the high rate solution with the above application solution. Formulated compound (2.7 mL) was applied pipetted evenly over the soil surface followed by incorporation with water (15 mL). Following treatment, pots were returned to the greenhouse for the duration of the experiment. The greenhouse was programmed for an approximate 15 h photoperiod which was maintained at about 23-29° C. during the day and 22-28° C. during the night. Nutrients and water were added on a regular basis through surface irrigation and supplemental lighting was provided with overhead metal halide 1000-Watt lamps as necessary. Herbicidal effect ratings were obtained 14 days after treatment. All evaluations were made relative to appropriate controls on a scale of 0 to 100 where 0 represents no herbicidal effect and 100 represents plant death or lack of emergence from the soil.

[2] = system: AMARE: redroot pigwseed (Amaranthus retroflexus); experiment: Pre-emergent Test I herbicidal activity; conditions: pre-emergence, 336 h, read-out: Visual Growth Reduction (%) 14 Days After Application, AMARE; for pest or weed control at 3840 g/ha: 3.84 kg ai/ha
Protocol: as §1

[3] = system: SETFA: giant foxtail (Setaria faberi); experiment: Pre-emergent Test I herbicidal activity; conditions: pre-emergence, 336 h, read-out: Visual Growth Reduction (%) 14 Days After Application, SETFA
Protocol: as §1

[4] = system: ECHCG: barnyardgrass (Echinochloa crus-galli); experiment: Pre-emergent Test I herbicidal activity; conditions: pre-emergence, 336 h, read-out: Visual Growth Reduction (%) 14 Days After Application, ECHCG; for pest or weed control at 3840 g/ha: 3.84 kg ai/ha
Protocol: as §1

[5] = system: HELAN: sunflower (Helianthus annuus); experiment: Pre-emergent Test I herbicidal activity; conditions: pre-emergence, 336 h, read-out: Visual Growth Reduction (%) 14 Days After Application, HELAN; for pest or weed control at 3840 g/ha: 3.84 kg ai/ha
Protocol: as §1

[6] = system: AVEFA: wild oats (Avena fatua); experiment: Post-emergent Test I herbicidal activity; conditions: post-emergence, 336 h, read-out: Visual Growth Reduction (%) 14 Days After Application, AVEFA; for pest or weed control at 3840 g/ha: 3.84 kg ai/ha
Protocol: (§2) Post-emergent Test I Seeds test species were obtained from commercial suppliers and planted into a 13 cm diameter-round pot containing soil-less media mix (metro-mix 360®, Sun Gro Horticulture). Postemergence treatments were planted 8-12 days prior to application and cultured in a greenhouse equipped with supplemental light sources to provide a 16 h photoperiod at 24-29° C. All pots were surface irrigated.
(§3) A weighted amount, determined by the highest rate to be tested, of each compound was dissolved in 1.3 mL acetone-DMSO (97:3, v/v) and diluted with 4.1 mL water-isopropanol-crop oil concentrate (78:20:2, v/v/v) containing 0.02% Triton X-155 to obtain concentrated stock solutions. Additional application rates were obtained by serial dilution of the high rate solution into a solution containing appropriate volume of 97:3 v/v mixture of acetone and DMSO and appropriate volume of an aqueous mixture of water, isopropyl alcohol, crop oil concentrate (78:20:2, v/v/v) containing 0.02% Triton X-155.
(§4) Formulated compounds were applied using a DeVilbiss® compressed air sprayer at 2-4 psi. Following treatment, pots were returned to the greenhouse for the duration of the experiment. All pots were sub-irrigated as need to provide optimum growing conditions. All pots were fertilized one time per week by subirrigating with Peters Peat-Lite Special® fertilizer (20-10-20).
(§5) […] All evaluations were made visually on a scale of 0 to 100 where 0 represents no activity and 100 represents complete plant death. Visual assessments of plant injury were made based on growth reduction, discoloration, leaf deformity and necrosis.

[7] = system: IPOHE: ivyleaf morningglory (Ipomoea hederecea); experiment: Post-emergent Test I herbicidal activity; conditions: post-emergence, 336 h, read-out: Visual Growth Reduction (%) 14 Days After Application, IPOHE; for pest or weed control at 3840 g/ha: 3.84 kg ai/ha
Protocol: as §2, §3, §4, §5

[8] = system: AMARE: redroot pigwseed (Amaranthus retroflexus); experiment: Post-emergent Test I herbicidal activity; conditions: post-emergence, read-out: Visual Growth Reduction (%), AMARE; for pest or weed control at 3840 g/ha: 3.84 kg ai/ha
Protocol: as §2, §3, §4, §5

[9] = system: SETFA: giant foxtail (Setaria faberi); experiment: Post-emergent Test I herbicidal activity; conditions: post-emergence, 336 h, read-out: Visual Growth Reduction (%) 14 Days After Application, SETFA; for pest or weed control at 3840 g/ha: 3.84 kg ai/ha
Protocol: as §2, §3, §4, §5

[10] = system: ECHCG: barnyardgrass (Echinochloa crus-galli); experiment: Post-emergent Test I herbicidal activity; conditions: post-emergence, 336 h, read-out: Visual Growth Reduction (%) 14 Days After Application, ECHCG; for pest or weed control at 3840 g/ha: 3.84 kg ai/ha
Protocol: as §2, §3, §4, §5

[11] = system: HELAN: sunflower (Helianthus annuus); experiment: Post-emergent Test I herbicidal activity; conditions: post-emergence, 336 h, read-out: Visual Growth Reduction (%) 14 Days After Application, HELAN; for pest or weed control at 3840 g/ha: 3.84 kg ai/ha
Protocol: as §2, §3, §4, §5

[12] = system: AVEFA: wild oats (Avena fatua); experiment: Pre-emergent Test I herbicidal activity; conditions: pre-emergence, 336 h, read-out: Visual Growth Reduction (%) 14 Days After Application, AVEFA
Protocol: as §1

COC(=O)c1nc(-c2ccc(C(F)F)c(F)c2)cc(N)c1Cl [Compound 196]
85 to 94%: pest or weed control at 3840 g/ha [4] | pest or weed control at 3840 g/ha [7]
95 to 100%: pest or weed control at 3840 g/ha [1] | pest or weed control at 3840 g/ha [2] | pest or weed control at 3840 g/ha ([3]; 3.84 kg ai/ha) | pest or weed control at 3840 g/ha [5] | pest or weed control at 3840 g/ha [8] | pest or weed control at 3840 g/ha [9] | pest or weed control at 3840 g/ha [10] | pest or weed control at 3840 g/ha [11]
60 to 74%: pest or weed control at 3840 g/ha [6]

COC(=O)c1nc(-c2ccc(OC(F)F)cc2)c(F)c(N)c1Cl [Compound 85]
75 to 84%: pest or weed control at 3760 g/ha ([12]; 3.76 kg ai/ha)
30 to 44%: pest or weed control at 3760 g/ha ([1]; 3.76 kg ai/ha) | pest or weed control at 3760 g/ha ([6]; 3.76 kg ai/ha) | pest or weed control at 3760 g/ha ([7]; 3.76 kg ai/ha)
95 to 100%: pest or weed control at 3760 g/ha ([2]; 3.76 kg ai/ha) | pest or weed control at 3760 g/ha ([4]; 3.76 kg ai/ha) | pest or weed control at 3760 g/ha ([5]; 3.76 kg ai/ha) | pest or weed control at 3760 g/ha ([8]; 3.76 kg ai/ha) | pest or weed control at 3760 g/ha ([10]; 3.76 kg ai/ha) | pest or weed control at 3760 g/ha ([11]; 3.76 kg ai/ha)
85 to 94%: pest or weed control at 3760 g/ha ([9]; 3.76 kg ai/ha)

COC(=O)c1nc(-c2ccc(I)cc2)c(F)c(N)c1Cl [Compound 118, Methyl 4-amino-6-(4-iodophenyl)-3-chloro-5-fluoropicolinate]
95 to 100%: pest or weed control at 2320 g/ha ([12]; 2.32 kg ai/ha) | pest or weed control at 2320 g/ha ([1]; 2.32 kg ai/ha) | pest or weed control at 2320 g/ha ([2]; 2.32 kg ai/ha) | pest or weed control at 2320 g/ha ([4]; 2.32 kg ai/ha) | pest or weed control at 2320 g/ha ([5]; 2.32 kg ai/ha) | pest or weed control at 2320 g/ha ([6]; 2.32 kg ai/ha) | pest or weed control at 2320 g/ha ([7]; 2.32 kg ai/ha) | pest or weed control at 2320 g/ha ([8]; 2.32 kg ai/ha) | pest or weed control at 2320 g/ha ([9]; 2.32 kg ai/ha) | pest or weed control at 2320 g/ha ([10]; 2.32 kg ai/ha) | pest or weed control at 2320 g/ha ([11]; 2.32 kg ai/ha)

C=Cc1c(C(=O)OC)nc(-c2ccc(Cl)c(F)c2)c(F)c1N [Compound 215, methyl 4-amino-6-(4-chloro-3-fluorophenyl)-5-fluoro-3-vinylpicolinate]
85 to 94%: pest or weed control at 3960 g/ha ([12]; 3.96 kg ai/ha) | pest or weed control at 3960 g/ha ([3]; 3.96 kg ai/ha) | pest or weed control at 3960 g/ha ([10]; 3.96 kg ai/ha)
0 to 29%: pest or weed control at 3960 g/ha ([9]; 3.96 kg ai/ha)
95 to 100%: pest or weed control at 3960 g/ha ([1]; 3.96 kg ai/ha) | pest or weed control at 3960 g/ha ([2]; 3.96 kg ai/ha) | pest or weed control at 3960 g/ha ([4]; 3.96 kg ai/ha) | pest or weed control at 3960 g/ha ([5]; 3.96 kg ai/ha) | pest or weed control at 3960 g/ha ([7]; 3.96 kg ai/ha) | pest or weed control at 3960 g/ha ([11]; 3.96 kg ai/ha)
30 to 44%: pest or weed control at 3960 g/ha ([6]; 3.96 kg ai/ha)

COC(=O)c1nc(-c2ccc(C#N)cc2)c(F)c(N)c1Cl [Compound 142]
95 to 100%: pest or weed control at 3840 g/ha ([12]; 3.84 kg ai/ha) | pest or weed control at 3840 g/ha [1] | pest or weed control at 3840 g/ha [2] | pest or weed control at 3840 g/ha [5] | pest or weed control at 3840 g/ha [7] | pest or weed control at 3840 g/ha [8] | pest or weed control at 3840 g/ha [10] | pest or weed control at 3840 g/ha [11]
30 to 44%: pest or weed control at 3840 g/ha [4]
60 to 74%: pest or weed control at 3840 g/ha [9]
45 to 59%: pest or weed control at 3840 g/ha [6]
